Measured values taken from paper PMC11345836 (Journal of Medicinal Chemistry, 2024).
Values after ≈ are worked out from the molar mass of the structure shown. Where two headings read alike, the source gives them in different places.

Assays:
[1] = Solubility of solid forms; assay type: physicochemical
[2] = cited from earlier work
[3] = cited from earlier work; remark: listed apart in the source
[4] = cited from earlier work; remark: listed apart in the source
[5] = cited from earlier work; remark: listed apart in the source
[6] = cited from earlier work; remark: listed apart in the source
[7] = 0.3–10 μM; cited from earlier work
[8] = 0.3–10 μM; cited from earlier work; remark: listed apart in the source
[9] = 0.3–10 μM; cited from earlier work; remark: listed apart in the source
[10] = 2–200 μM; cited from earlier work
[11] = NMR EXSY rotamer exchange kinetics; settings: for Rotamer exchange in EXSY: 300 ms mixing time at 298 K; for Torsion Rotation t1/2: extrapolated to 298 K
[12] = rat, p.o. 10 mg/kg, fed
[13] = Rat liver microsome stability; settings: for microsomal CLint: rat, microsomes; for predicted hepatic clearance, rat: scaled from rat liver microsomes
Shake-flask LogD = assay type: physicochemical

SMILES: CC(C)(C)[C@H](NC(=O)C(F)(F)F)C(=O)N1C[C@H]2[C@@H]([C@H]1C(=O)N[C@H](C#N)C[C@@H]1CCNC1=O)C2(C)C [Compound 1, nirmatrelvir]
- solubility ([1]; Form: Anhydrous): 1200 µg/mL (≈ 2.4 mM)
- solubility ([1]; Form: MTBE): 7210 µg/mL (≈ 14.4 mM)
- CLint,app, substrate depletion in HLM [2]: 28.8 µL/min/mg
- predicted hepatic clearance, human ([2]; from substrate depletion in HLM): 6.3 mL/min/kg
- observed CLp, rats [3]: 22.7 mL/min/kg
- observed CLp, monkeys [4]: 15.8 mL/min/kg
- predicted hepatic clearance, rats [5]: 5.8 mL/min/kg
- predicted hepatic clearance, monkeys [6]: 25 mL/min/kg
- fu,p rat plasma [7]: 0.47–0.49
- fu,p monkey plasma [8]: 0.39–0.50
- fu,p human plasma [9]: 0.30–0.33
- fu,p dog plasma [10]: 0.024–0.69
- Energy of Rotation ([11]; Form: Anhydrous): 20.4 kcal/mol
- Rotamer exchange in EXSY ([11]; Form: Anhydrous): No
- Torsion Rotation t1/2 ([11]; Form: Anhydrous): 10.54 min
- Energy of Rotation ([11]; Form: MTBE): 20.2 kcal/mol
- Rotamer exchange in EXSY ([11]; Form: MTBE): No
- Torsion Rotation t1/2 ([11]; Form: MTBE): 10.99 min

SMILES: COC(=O)N[C@H](C(=O)N1C[C@H](OC(F)(F)F)C[C@H]1C(=O)N[C@H](C#N)C[C@@H]1CCNC1=O)C(C)(C)C [Compound 5, Methyl ((S)-1-((2S,4R)-2-(((S)-1-cyano-2-((S)-2-oxopyrrolidin-3-yl)ethyl)carbamoyl)-4-(trifluoromethoxy)pyrrolidin-1-yl)-3,3-dimethyl-1-oxobutan-2-yl)carbamate]
- Fa × Fg ([12]; amorphous, solution): 12.2 (11.4, 13.2) %
- Oral F ([12]; amorphous, solution): 8.6 (8.0, 9.2) %
- microsomal CLint [13]: < 5.8 µL/min/mg
- predicted hepatic clearance, rat [13]: < 11 mL/min/kg

SMILES: CC(C)(C)[C@H](NC(=O)C(F)(F)F)C(=O)N1C[C@H](OC(F)F)C[C@H]1C(=O)N[C@H](C#N)C[C@@H]1CCNC1=O [Compound 6, (2S,4R)-N-((S)-1-Cyano-2-((S)-2-oxopyrrolidin-3-yl)ethyl)-4-(difluoromethoxy)-1-((S)-3,3-dimethyl-2-(2,2,2-trifluoroacetamido)butanoyl)pyrrolidine-2-carboxamide]
- Fa × Fg ([12]; 50% ASD): 7.2 (7.3, 6.9) %
- Oral F ([12]; 50% ASD): 4.2 (4.3, 4.1) %
- Fa × Fg ([12]; crystalline, suspension): 20.2 (20.0, 20.4) %
- microsomal CLint [13]: < 5.8 µL/min/mg
- predicted hepatic clearance, rat [13]: < 11 mL/min/kg

SMILES: COC(=O)N[C@H](C(=O)N1C[C@H](C(F)(F)F)C[C@H]1C(=O)N[C@H](C#N)C[C@@H]1CCCNC1=O)C(C)C [Compound 12, Methyl ((S)-1-((2S,4R)-2-(((S)-1-cyano-2-((S)-2-oxopiperidin-3-yl)ethyl)carbamoyl)-4-(trifluoromethyl)pyrrolidin-1-yl)-3-methyl-1-oxobutan-2-yl)carbamate]
- Fa × Fg ([12]; 50% ASD): 15.8 (17.1, 14.5) %
- Oral F ([12]; 50% ASD): 8.1 (8.8, 7.5) %
- Fa × Fg ([12]; amorphous, solution): 14.7 (12.3, 17.6) %
- Oral F ([12]; amorphous, solution): 7.7 (6.3,9.0) %
- microsomal CLint [13]: < 5.8 µL/min/mg
- predicted hepatic clearance, rat [13]: < 11 mL/min/kg

SMILES: Cc1cccc(C)c1OCC(=O)N[C@@H](Cc1ccccc1)[C@@H](O)C[C@H](Cc1ccccc1)NC(=O)[C@H](C(C)C)N1CCCNC1=O [lopinavir]
- logD (Shake-flask LogD): 3.8

SMILES: Cc1cnc(C(=O)N[C@H]2CCCCC/C=C\[C@@H]3C[C@@]3(C(=O)NS(=O)(=O)C3CC3)NC(=O)[C@@H]3C[C@@H](Oc4nc5ccccc5c5ccccc45)CN3C2=O)cn1 [paritaprevir]
- logD (Shake-flask LogD): 3.1
